Experimental findings from paper PMC8197369, “Scale-Up Preparation of Crocins I and II from Gardenia jasminoides by a Two-Step Chromatographic Approach and Their Inhibitory Activity Against ATP Citrate Lyase” (Molecules, 2021) are described below.

In general, IC50 refers to the concentration needed to halve the response being measured. Read a low IC50 as greater potency in that assay.

For this assay, the target named is T1, ATP citrate lyase (ACLY) (Homo sapiens, UniProt P53396).
T1 construct: ACLY (His)
T1 sequence (P53396 1-1101): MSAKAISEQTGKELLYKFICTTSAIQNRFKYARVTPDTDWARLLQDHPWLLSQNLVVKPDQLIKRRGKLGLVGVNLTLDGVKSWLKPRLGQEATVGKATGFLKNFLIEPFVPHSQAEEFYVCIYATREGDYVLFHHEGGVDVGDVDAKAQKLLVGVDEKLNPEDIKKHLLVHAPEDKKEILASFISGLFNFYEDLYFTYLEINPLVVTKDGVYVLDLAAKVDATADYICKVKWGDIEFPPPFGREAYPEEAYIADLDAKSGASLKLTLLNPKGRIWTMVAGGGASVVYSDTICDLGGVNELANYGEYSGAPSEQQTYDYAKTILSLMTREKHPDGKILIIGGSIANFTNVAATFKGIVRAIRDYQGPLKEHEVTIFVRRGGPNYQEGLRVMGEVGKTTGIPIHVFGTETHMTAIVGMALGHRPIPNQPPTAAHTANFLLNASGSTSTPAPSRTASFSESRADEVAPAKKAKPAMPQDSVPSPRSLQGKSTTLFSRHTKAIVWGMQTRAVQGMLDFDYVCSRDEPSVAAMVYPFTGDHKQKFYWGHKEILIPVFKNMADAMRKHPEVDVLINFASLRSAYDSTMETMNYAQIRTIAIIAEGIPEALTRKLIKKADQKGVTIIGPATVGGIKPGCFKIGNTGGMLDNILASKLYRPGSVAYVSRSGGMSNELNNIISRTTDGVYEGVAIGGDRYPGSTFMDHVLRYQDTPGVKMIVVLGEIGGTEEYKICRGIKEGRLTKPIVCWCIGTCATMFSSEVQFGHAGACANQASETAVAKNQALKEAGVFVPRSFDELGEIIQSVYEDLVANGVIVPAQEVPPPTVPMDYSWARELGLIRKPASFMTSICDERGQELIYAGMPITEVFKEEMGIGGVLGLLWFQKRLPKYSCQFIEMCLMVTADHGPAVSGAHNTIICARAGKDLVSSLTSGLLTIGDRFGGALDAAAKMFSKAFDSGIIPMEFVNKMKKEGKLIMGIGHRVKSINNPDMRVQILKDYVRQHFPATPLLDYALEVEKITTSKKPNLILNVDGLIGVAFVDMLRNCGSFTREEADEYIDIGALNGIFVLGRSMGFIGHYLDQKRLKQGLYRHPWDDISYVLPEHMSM
The assay can be described thus: ADP-Glo ADP-coupled enzymatic assay. In kind it is biochemical. (In general: ADP-Glo first removes unused ATP, then detects ADP through luciferase.)

Structures are written as SMILES.

As for `CC(/C=C/C=C(\C)C(=O)O[C@@H]1O[C@H](CO[C@@H]2O[C@H](CO)[C@@H](O)[C@H](O)[C@H]2O)[C@@H](O)[C@H](O)[C@H]1O)=C\C=C\C=C(C)\C=C\C=C(/C)C(=O)O[C@@H]1O[C@H](CO[C@@H]2O[C@H](CO)[C@@H](O)[C@H](O)[C@H]2O)[C@@H](O)[C@H](O)[C@H]1O` [compound 1, crocin I], it took 36.3 ± 6.24 µM to reach half-maximal inhibition (IC50). As for `CC(/C=C/C=C(\C)C(=O)O[C@@H]1O[C@H](CO)[C@@H](O)[C@H](O)[C@H]1O)=C\C=C\C=C(C)\C=C\C=C(/C)C(=O)O[C@@H]1O[C@H](CO[C@@H]2O[C@H](CO)[C@@H](O)[C@H](O)[C@H]2O)[C@@H](O)[C@H](O)[C@H]1O` [compound 2, crocin II], half-maximal inhibition (IC50) was put at 29.7 ± 7.41 µM.
